Where two headings read alike, the source gives them in different places.
Target: T1, α-7 nicotinic acetylcholine receptor channel expressed in HEK 293 cells (Rattus norvegicus, UniProt Q05941)
T1 construct: expressed in transfected cells
Test: Ca2+-sensitive fluorescence-based FLIPR assay, α7 nicotinic ACh receptor channel function (agonist)
Assay type: cell-based
Description: I) α7 Nicotinic Acetycholine Receptor Binding. Membranes were prepared for binding using HEK293 cells stably expressing the rat α7 nicotinic acetycholine receptor (rat α7 nAChR). Cells were homogenized at 4° C. in hypotonic lysis buffer consisting of 10 mM Tris (pH 7.4), 5 mM EDTA and protease inhibitors and centrifuged at 32000×g for 20 minutes. The pellet was washed once in membrane wash buffer consisting of 50 mM Tris (pH 7.4), 1 mM EDTA and protease inhibitors and centrifuged at 32000×g for 20 minutes. This pellet was then resuspended in assay buffer consisting 50 mM KH2PO4 (pH 7.4 at 25° C.), 1 mM EDTA, 0.005% Triton-X 100 and 0.1% (v/v) Sigma Protease Inhibitor Cocktail. Aliquots were then frozen in dry ice/ethanol and kept at −80° C. until the day of the assay. II) A Ca^2+-Sensitive, Fluorescence-Based Assay α-7 for Nicotinic Acetylcholine Receptor Channel Function In Mammalian Cells (“FLIPR”). Summary: Lead compounds are evaluated for agonist activity at […], α3β4, […], and α1β1δ1ε sub-types of nicotinic ACh receptor ion channels expressed in mammalian HEK 293 cells. Agonist potency and efficacy values are determined from kinetic fluorescence Ca^2+ influx measurements made using a 384 well FLIPR (Fluorescence Image Plate Reader). […] In this assay, channel expressing HEK cell lines seeded in 384 well assay plates are loaded with a membrane permeant fluorescent Ca^2+ indicator dye, whose 510 nm green emission signal increases in response to elevation of intracellular Ca^2+ concentration. The basal fluorescence from the cells is monitored in real time, followed by the acute addition of test compounds.
Materials and Methods: Reagents: The acetomethoxy (AM) ester of the Ca^2+ indicator dye Fluo-4 was obtained from InVitrogen, (Carlsbad, Calif.). Acetylcholine and all buffer constituents were purchased from Sigma Chemical Company, St. Louis, Mo. G418 and Minimal Essential Medium were purchased from InVitrogen Life Technologies, Carlsbad, Calif. Fetal bovine serum was purchased from (InVitrogen, Carlsbad, Calif.).
Cell Culture: HEK-293 cells were grown in Minimal Essential Medium containing 10% (v/v) fetal bovine serum at 37° C. in a 5% CO2 incubator. HEK-293 cells stably expressing the ion channels were grown in the same medium with the addition of 500 μg/ml G418.
Ca^2+ flux assays of Ca^2+ channels expressed in HEK-293 cells: HEK-293 cells expressing the ion channels of interest were plated in 384 well, black-walled, clear-bottomed, poly-D-lysine coated plates at a density of ˜20,000 cells/well in 20 μl of Minimal Essential Medium containing 10% (v/v) fetal bovine serum and incubated for 2 days at 29° C. in a 5% CO2 incubator. Prior to assay, cells were loaded with the Fluo-4 AM ester. […] Dye loading was allowed to proceed for 90 minutes at room temperature at which time the dye loading solution was removed and replaced with 40 μl/well of Hanks buffer. Cells loaded with dye were loaded onto a FLIPR384 (Molecular Devices, Sunnyvale, Calif.). Fluo-4 dye was excited using the 488 nm line of an argon laser. Emission was filtered using a 540+/−30 nm bandpass filter. For evaluation of the effects of test compounds using the Ca^2+ flux assay, compounds to be tested were provided in assay ready plates. For nicotinic receptor ion channel expressing cells, the assay was initiated by the addition of 20 μl/well of Hanks buffer containing test compounds. For all assays, data were collected at 1 Hz for 10 seconds (baseline), at which time the compound containing stimulus buffers are added, and further measurements collected at 0.33 Hz for 3 min.
Data Analysis: The statistical robustness of the nicotinic receptor Ca^2+ flux assays is determined from blanks and totals wells. […] The raw fluorescence units data files generated on the FLIPR plate reader are automatically exported and processed by in-house data analysis tools.

[1] = FLIPR α7 activity rating (EC50, nM), Table 1, HEK 293 cells, agonist Ca2+ flux
[2] = FLIPR α7 (EC50, nM), Table 1, HEK 293 cells, agonist Ca2+ flux

T1 sequence (Q05941 23-502): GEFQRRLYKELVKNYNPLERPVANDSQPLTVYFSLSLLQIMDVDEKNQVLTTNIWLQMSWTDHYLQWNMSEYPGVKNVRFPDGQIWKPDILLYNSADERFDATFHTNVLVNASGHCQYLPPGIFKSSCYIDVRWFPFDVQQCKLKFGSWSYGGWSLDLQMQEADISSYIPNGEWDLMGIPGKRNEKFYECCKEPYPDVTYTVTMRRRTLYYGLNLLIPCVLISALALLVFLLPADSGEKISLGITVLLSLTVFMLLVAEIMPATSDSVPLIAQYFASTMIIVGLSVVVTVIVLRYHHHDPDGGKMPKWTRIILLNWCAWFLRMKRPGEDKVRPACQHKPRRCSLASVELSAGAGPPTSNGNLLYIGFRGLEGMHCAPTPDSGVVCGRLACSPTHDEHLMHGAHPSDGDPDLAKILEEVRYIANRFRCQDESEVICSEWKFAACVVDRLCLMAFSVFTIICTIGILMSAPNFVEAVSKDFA

| SMILES | EC50 [1] [nM] | EC50 [nM] | EC50 [2] [nM] |
| --- | --- | --- | --- |
| COc1ccc(-c2cc(NC3=NC[C@@]4(CN5CCC4CC5)O3)ncn2)cn1 [Example 43, (R)—N-(6-(6-Methoxypyridin-3-yl)pyrimidin-4-yl)-4H-1′-azaspiro[oxazole-5,3′-bicyclo[2.2.2]octan]-2-amine] | < 100 |  |  |
| c1ccc2cc(-c3cc(NC4=NC[C@@]5(CN6CCC5CC6)O4)ncn3)ccc2c1 [Example 44, (R)—N-(6-(Naphthalen-2-yl)pyrimidin-4-yl)-4H-1′-azaspiro[oxazole-5,3′-bicyclo[2.2.2]octan]-2-amine] | 100 to 1000 |  |  |
| c1ccc(-c2csc(NC3=NCC4(CN5CCC4CC5)O3)n2)cc1 (stereo not drawn) [Example 45] | 100 to 1000 |  |  |
| c1cc2nc(NC3=NCC4(CN5CCC4CC5)O3)sc2cc1N1CCOCC1 (stereo not drawn) [Example 46] | 1000 to 100000 | 2000 |  |
| Fc1ccc2sc(NC3=NCC4(CN5CCC4CC5)O3)nc2c1 (stereo not drawn) [Example 47] | < 100 |  |  |
| FC(F)(F)c1ccc2nc(NC3=NCC4(CN5CCC4CC5)O3)sc2c1 (stereo not drawn) [Example 48] | 100 to 1000 |  | 790 |
| FC(F)(F)Oc1ccc2nc(NC3=NCC4(CN5CCC4CC5)O3)sc2c1 (stereo not drawn) [Example 49] | 1000 to 100000 | 3330 |  |
| Fc1cccc2sc(NC3=NCC4(CN5CCC4CC5)O3)nc12 (stereo not drawn) [Example 50] | < 100 |  |  |
| Fc1cc2nc(NC3=NCC4(CN5CCC4CC5)O3)sc2cc1F (stereo not drawn) [Example 52] | 100 to 1000 |  | 325 |
| COc1ccc2sc(NC3=NCC4(CN5CCC4CC5)O3)nc2c1 (stereo not drawn) [Example 53] | 1000 to 100000 |  |  |
| COc1cccc2sc(NC3=NCC4(CN5CCC4CC5)O3)nc12 (stereo not drawn) [Example 54] | 1000 to 100000 |  |  |
| COc1cc2nc(NC3=NCC4(CN5CCC4CC5)O3)sc2cc1OC (stereo not drawn) [Example 55] | 1000 to 100000 |  |  |
| c1ccc(-c2nnc(NC3=NCC4(CN5CCC4CC5)O3)s2)cc1 (stereo not drawn) [Example 56] | 1000 to 100000 |  |  |
| CN(C)C(=O)c1ccc2nc(NC3=NCC4(CN5CCC4CC5)O3)sc2c1 (stereo not drawn) [Example 57] | 1000 to 100000 | 3900 |  |
| O=C(c1ccc2nc(NC3=NCC4(CN5CCC4CC5)O3)sc2c1)N1CCCCC1 (stereo not drawn) [Example 58] | 1000 to 100000 |  |  |
| Fc1ccc(-c2nnc(NC3=NCC4(CN5CCC4CC5)O3)s2)cc1 (stereo not drawn) [Example 59] | 1000 to 100000 | 4240 |  |
| c1coc(-c2nnc(NC3=NCC4(CN5CCC4CC5)O3)s2)c1 (stereo not drawn) [Example 60] | 1000 to 100000 | 2550 |  |

| SMILES | EC50 [1] [nM] | EC50 [nM] | EC50 [2] [nM] |
| --- | --- | --- | --- |
| Brc1ccc2nc(NC3=NCC4(CN5CCC4CC5)O3)sc2c1 (stereo not drawn) [Example 61] | 100 to 1000 |  |  |
| Cc1nc2cc(NC3=NCC4(CN5CCC4CC5)O3)ccc2s1 (stereo not drawn) [Example 63] | 1000 to 100000 | 2600 |  |
| Clc1ccc2nc(NC3=NCC4(CN5CCC4CC5)O3)nn2c1 (stereo not drawn) [Example 66] | 100 to 1000 |  | 360 |
| Cc1noc(C)c1NC1=NCC2(CN3CCC2CC3)O1 (stereo not drawn) [Example 67] | 1000 to 100000 |  |  |
| Cc1cnn(C)c1NC1=NCC2(CN3CCC2CC3)O1 (stereo not drawn) [Example 68] | 1000 to 100000 |  |  |
| N#Cc1ccc2nc(NC3=NCC4(CN5CCC4CC5)O3)sc2c1 (stereo not drawn) [Example 70] | 100 to 1000 |  |  |
| c1nc2cc(NC3=NCC4(CN5CCC4CC5)O3)ccc2s1 (stereo not drawn) [Example 71] | 1000 to 100000 |  |  |
| c1nc2ccc(NC3=NCC4(CN5CCC4CC5)O3)cc2s1 (stereo not drawn) [Example 72] | 1000 to 100000 |  |  |
| c1ccc2ncc(NC3=NCC4(CN5CCC4CC5)O3)cc2c1 (stereo not drawn) [Example 73] | 1000 to 100000 | 7550 |  |
| Cc1ccc2nc(NC3=NCC4(CN5CCC4CC5)O3)nn2c1 (stereo not drawn) [Example 74] | < 100 |  |  |
| c1cnc2cc(NC3=NCC4(CN5CCC4CC5)O3)ccc2n1 (stereo not drawn) [Example 75] | 1000 to 100000 |  |  |
| COc1ccc2nc(NC3=NCC4(CN5CCC4CC5)O3)[nH]c2c1 (stereo not drawn) [Example 76] | 100 to 1000 |  |  |
| Fc1ccc2nc(NC3=NCC4(CN5CCC4CC5)O3)[nH]c2c1 (stereo not drawn) [Example 77] | 100 to 1000 |  | 355 |
| c1cc2cn[nH]c2cc1NC1=NCC2(CN3CCC2CC3)O1 (stereo not drawn) [Example 78] | 1000 to 100000 |  |  |
| FC(F)(F)c1ccc2nc(NC3=NCC4(CN5CCC4CC5)O3)nn2c1 (stereo not drawn) [Example 83] | 100 to 1000 |  | 240 |
| c1cnc2ccc(NC3=NCC4(CN5CCC4CC5)O3)cc2c1 (stereo not drawn) [Example 85] | 1000 to 100000 |  |  |
